Assay: xn = mol fraction of the nth substance listed
Conditions: Liquid, Vibrating tube method

CC(C)=O [acetone] + CCCCCCC
Conditions	mass density [kg/m3]
407.24 K, 19810 kPa, x1 = 0.7024	645.07
407.24 K, 34830 kPa, x1 = 0.7024	668.11
407.24 K, 39830 kPa, x1 = 0.7024	674.52
407.24 K, 44820 kPa, x1 = 0.7024	680.48
407.24 K, 49810 kPa, x1 = 0.7024	686.06
407.24 K, 54890 kPa, x1 = 0.7024	691.39
407.24 K, 59890 kPa, x1 = 0.7024	696.35
407.24 K, 64860 kPa, x1 = 0.7024	701.02
407.24 K, 69850 kPa, x1 = 0.7024	705.48
407.24 K, 74830 kPa, x1 = 0.7024	709.73
407.24 K, 79820 kPa, x1 = 0.7024	713.81
407.24 K, 84800 kPa, x1 = 0.7024	717.74
407.24 K, 94760 kPa, x1 = 0.7024	725.11
407.24 K, 99830 kPa, x1 = 0.7024	728.64
407.24 K, 119800 kPa, x1 = 0.7024	741.56
407.25 K, 89790 kPa, x1 = 0.7024	721.47
407.25 K, 104820 kPa, x1 = 0.7024	732.04
407.25 K, 109820 kPa, x1 = 0.7024	735.31
407.25 K, 114820 kPa, x1 = 0.7024	738.47
407.25 K, 124810 kPa, x1 = 0.7024	744.56
407.25 K, 129820 kPa, x1 = 0.7024	747.45
417.16 K, 1870 kPa, x1 = 0.611	581.34
417.16 K, 4870 kPa, x1 = 0.611	591.69
417.16 K, 9860 kPa, x1 = 0.611	605.85
417.16 K, 14870 kPa, x1 = 0.611	617.52
417.16 K, 19870 kPa, x1 = 0.611	627.57
417.16 K, 29860 kPa, x1 = 0.611	644.4
417.16 K, 34860 kPa, x1 = 0.611	651.63
417.16 K, 44870 kPa, x1 = 0.611	664.46
417.16 K, 49860 kPa, x1 = 0.611	670.17
417.16 K, 54850 kPa, x1 = 0.611	675.54
417.16 K, 59830 kPa, x1 = 0.611	680.59
417.16 K, 64940 kPa, x1 = 0.611	685.5
417.16 K, 69910 kPa, x1 = 0.611	690.02
417.16 K, 74900 kPa, x1 = 0.611	694.35
417.16 K, 79880 kPa, x1 = 0.611	698.49
417.16 K, 84870 kPa, x1 = 0.611	702.46
417.16 K, 89850 kPa, x1 = 0.611	706.26
417.16 K, 94840 kPa, x1 = 0.611	709.93
417.16 K, 99820 kPa, x1 = 0.611	713.43
417.16 K, 119850 kPa, x1 = 0.611	726.48
417.17 K, 1870 kPa, x1 = 0.492	575.55
417.17 K, 4860 kPa, x1 = 0.492	585.56
417.17 K, 9850 kPa, x1 = 0.492	599.32
417.17 K, 24840 kPa, x1 = 0.611	636.42
417.17 K, 39880 kPa, x1 = 0.611	658.3
417.17 K, 44850 kPa, x1 = 0.492	656.44
417.17 K, 49850 kPa, x1 = 0.492	662.04
417.17 K, 54840 kPa, x1 = 0.492	667.29
417.17 K, 59840 kPa, x1 = 0.492	672.26
417.17 K, 104790 kPa, x1 = 0.611	716.82
417.17 K, 104800 kPa, x1 = 0.492	707.7
417.17 K, 109770 kPa, x1 = 0.492	710.89
417.17 K, 109780 kPa, x1 = 0.611	720.13
417.17 K, 114870 kPa, x1 = 0.611	723.4
417.17 K, 124850 kPa, x1 = 0.611	729.46
417.17 K, 129850 kPa, x1 = 0.611	732.41
417.18 K, 1840 kPa, x1 = 0.801	597.33
417.18 K, 4870 kPa, x1 = 0.801	607.96
417.18 K, 14870 kPa, x1 = 0.492	610.71
417.18 K, 19870 kPa, x1 = 0.492	620.5
417.18 K, 24830 kPa, x1 = 0.492	629.07
417.18 K, 29860 kPa, x1 = 0.492	636.88
417.18 K, 34860 kPa, x1 = 0.492	643.95
417.18 K, 39860 kPa, x1 = 0.492	650.43
417.18 K, 64820 kPa, x1 = 0.492	676.9
417.18 K, 69910 kPa, x1 = 0.492	681.45
417.18 K, 74890 kPa, x1 = 0.492	685.69
417.18 K, 79880 kPa, x1 = 0.492	689.75
417.18 K, 84870 kPa, x1 = 0.492	693.62
417.18 K, 89860 kPa, x1 = 0.492	697.34
417.18 K, 94830 kPa, x1 = 0.492	700.9
417.18 K, 99820 kPa, x1 = 0.492	704.36
417.18 K, 114850 kPa, x1 = 0.492	714.07
417.18 K, 119830 kPa, x1 = 0.492	717.08
417.18 K, 124850 kPa, x1 = 0.492	720.01
417.18 K, 129840 kPa, x1 = 0.492	722.86
417.19 K, 2070 kPa, x1 = 0.4	611.4
417.19 K, 2070 kPa, x1 = 0.8992	611.4
417.19 K, 5030 kPa, x1 = 0.4	621.55
417.19 K, 5030 kPa, x1 = 0.8992	621.55
417.19 K, 9870 kPa, x1 = 0.801	622.44
417.19 K, 10010 kPa, x1 = 0.4	635.78
417.19 K, 10010 kPa, x1 = 0.8992	635.78
417.19 K, 14860 kPa, x1 = 0.801	634.41
417.19 K, 15000 kPa, x1 = 0.4	647.66
417.19 K, 15000 kPa, x1 = 0.8992	647.66
417.19 K, 19860 kPa, x1 = 0.801	644.76
417.19 K, 19970 kPa, x1 = 0.4	657.99
417.19 K, 19970 kPa, x1 = 0.8992	657.99
417.19 K, 24870 kPa, x1 = 0.801	653.93
417.19 K, 24970 kPa, x1 = 0.4	667.12
417.19 K, 24970 kPa, x1 = 0.8992	667.12
417.19 K, 29860 kPa, x1 = 0.801	662.11
417.19 K, 29960 kPa, x1 = 0.4	675.37
417.19 K, 29960 kPa, x1 = 0.8992	675.37
417.19 K, 34850 kPa, x1 = 0.801	669.57
417.19 K, 34950 kPa, x1 = 0.4	682.9
417.19 K, 34950 kPa, x1 = 0.8992	682.9
417.19 K, 39860 kPa, x1 = 0.801	676.46
417.19 K, 39930 kPa, x1 = 0.4	689.8
417.19 K, 39930 kPa, x1 = 0.8992	689.8
417.19 K, 44860 kPa, x1 = 0.801	682.8
417.19 K, 44890 kPa, x1 = 0.7024	672.51
417.19 K, 49870 kPa, x1 = 0.801	688.76
417.19 K, 49890 kPa, x1 = 0.4	702.22
417.19 K, 49890 kPa, x1 = 0.7024	678.35
417.19 K, 49890 kPa, x1 = 0.8992	702.22
417.19 K, 54860 kPa, x1 = 0.801	694.3
417.19 K, 54870 kPa, x1 = 0.4	707.85
417.19 K, 54870 kPa, x1 = 0.8992	707.85
417.19 K, 54880 kPa, x1 = 0.7024	683.78
417.19 K, 59860 kPa, x1 = 0.7024	688.95
417.19 K, 59870 kPa, x1 = 0.801	699.57
417.19 K, 64830 kPa, x1 = 0.801	704.51
417.19 K, 69830 kPa, x1 = 0.801	709.22
417.19 K, 74920 kPa, x1 = 0.801	713.82
417.19 K, 79790 kPa, x1 = 0.7024	707.06
417.19 K, 79800 kPa, x1 = 0.4	732.02
417.19 K, 79800 kPa, x1 = 0.8992	732.02
417.19 K, 79910 kPa, x1 = 0.801	718.11
417.19 K, 84890 kPa, x1 = 0.801	722.24
417.19 K, 89750 kPa, x1 = 0.4	740.27
417.19 K, 89750 kPa, x1 = 0.8992	740.27
417.19 K, 94870 kPa, x1 = 0.801	730.03
417.19 K, 104800 kPa, x1 = 0.801	737.2
417.19 K, 114770 kPa, x1 = 0.801	743.97
417.19 K, 119800 kPa, x1 = 0.7024	735.65
417.19 K, 119830 kPa, x1 = 0.801	747.24
417.19 K, 124820 kPa, x1 = 0.7024	738.72
417.19 K, 124830 kPa, x1 = 0.801	750.39
417.19 K, 129810 kPa, x1 = 0.7024	741.7
417.19 K, 129840 kPa, x1 = 0.801	753.43
417.2 K, 1810 kPa, x1 = 0.7024	587.77
417.2 K, 4810 kPa, x1 = 0.7024	598.33
417.2 K, 9830 kPa, x1 = 0.7024	612.79
417.2 K, 14820 kPa, x1 = 0.7024	624.66
417.2 K, 19830 kPa, x1 = 0.7024	634.93
417.2 K, 24810 kPa, x1 = 0.7024	643.93
417.2 K, 29810 kPa, x1 = 0.7024	652.02
417.2 K, 34810 kPa, x1 = 0.7024	659.38
417.2 K, 39820 kPa, x1 = 0.7024	666.17
417.2 K, 44910 kPa, x1 = 0.4	696.21
417.2 K, 44910 kPa, x1 = 0.8992	696.21
417.2 K, 59870 kPa, x1 = 0.4	713.19
417.2 K, 59870 kPa, x1 = 0.8992	713.19
417.2 K, 64850 kPa, x1 = 0.4	718.24
417.2 K, 64850 kPa, x1 = 0.7024	693.8
417.2 K, 64850 kPa, x1 = 0.8992	718.24
417.2 K, 69820 kPa, x1 = 0.4	723.05
417.2 K, 69820 kPa, x1 = 0.8992	723.05
417.2 K, 69830 kPa, x1 = 0.7024	698.42
417.2 K, 74810 kPa, x1 = 0.4	727.63
417.2 K, 74810 kPa, x1 = 0.8992	727.63
417.2 K, 74820 kPa, x1 = 0.7024	702.83
417.2 K, 84780 kPa, x1 = 0.4	736.22
417.2 K, 84780 kPa, x1 = 0.7024	711.1
417.2 K, 84780 kPa, x1 = 0.8992	736.22
417.2 K, 89760 kPa, x1 = 0.7024	714.98
417.2 K, 89890 kPa, x1 = 0.801	726.21
417.2 K, 94720 kPa, x1 = 0.4	744.15
417.2 K, 94720 kPa, x1 = 0.8992	744.15
417.2 K, 94740 kPa, x1 = 0.7024	718.71
417.2 K, 99690 kPa, x1 = 0.4	747.91
417.2 K, 99690 kPa, x1 = 0.8992	747.91
417.2 K, 99840 kPa, x1 = 0.7024	722.39
417.2 K, 99840 kPa, x1 = 0.801	733.67
417.2 K, 104650 kPa, x1 = 0.4	751.51
417.2 K, 104650 kPa, x1 = 0.8992	751.51
417.2 K, 104810 kPa, x1 = 0.7024	725.87
417.2 K, 109620 kPa, x1 = 0.4	755.03
417.2 K, 109620 kPa, x1 = 0.8992	755.03
417.2 K, 109800 kPa, x1 = 0.801	740.64
417.2 K, 109810 kPa, x1 = 0.7024	729.22
417.2 K, 114590 kPa, x1 = 0.4	758.45
417.2 K, 114590 kPa, x1 = 0.8992	758.45
417.2 K, 114820 kPa, x1 = 0.7024	732.49
417.2 K, 119550 kPa, x1 = 0.4	761.72
417.2 K, 119550 kPa, x1 = 0.8992	761.72
417.2 K, 124810 kPa, x1 = 0.4	765.12
417.2 K, 124810 kPa, x1 = 0.8992	765.12
417.2 K, 129820 kPa, x1 = 0.4	768.24
417.2 K, 129820 kPa, x1 = 0.8992	768.24

Reference: the NIST ThermoML archive (doi:10.1016/j.fluid.2010.10.028)
